Activity calls are given as the source filed them. The rule behind the calls is not given here.
Assays:
[1] = target: T1, Aurora kinase B (Homo sapiens, UniProt Q96GD4); test: Binding affinity to Aurora B (unknown origin) assessed as inhibition constant
[2] = system: MCF7; test: Antiproliferative activity against human MCF7 cells assessed as cell growth at 10 uM incubated for 72 hrs by SRB assay relative to control; format: functional; conditions: read-out: Activity
[3] = system: MCF7; test: Growth inhibition of human MCF7 cells incubated for 72 hrs by SRB assay; format: functional
[4] = system: MDA-MB-468; test: Antiproliferative activity against human MDA-MB-468 cells assessed as cell growth at 10 uM incubated for 72 hrs by SRB assay relative to control; format: functional; conditions: read-out: Activity
[5] = system: MDA-MB-468; test: Growth inhibition of human MDA-MB-468 cells incubated for 72 hrs by SRB assay; format: functional
[6] = system: T47D; test: Antiproliferative activity against human T47D cells assessed as cell growth at 10 uM incubated for 72 hrs by SRB assay relative to control; format: functional; conditions: read-out: Activity
[7] = system: T47D; test: Growth inhibition of human T47D cells incubated for 72 hrs by SRB assay; format: functional
[8] = target: T1, Aurora kinase B; test: Inhibition of Aurora B (unknown origin) at 100 nM by Z-LYTE assay relative to control
[9] = target: T1, Aurora kinase B; test: Inhibition of Aurora B (unknown origin) at 100 nM relative to control
[10] = target: T1, Aurora kinase B; test: Inhibition of Aurora B (unknown origin)
[11] = system: MCF7; test: Inhibition of mitochondrial respiration in human MCF7 cells assessed as reduction in oxygen consumption rate at 20 uM incubated for 15 mins in presence of complex I; format: functional, cell-based
[12] = system: MCF7; test: Inhibition of mitochondrial respiration in human MCF7 cells assessed as reduction in oxygen consumption rate at 20 uM incubated for 15 mins in presence of complex II; format: functional, cell-based
[13] = system: MCF7; test: Inhibition of mitochondrial respiration in human MCF7 cells assessed as reduction in oxygen consumption rate at 20 uM incubated for 15 mins in presence of complex IV; format: functional, cell-based
[14] = system: MCF7; test: Inhibition of mitochondrial respiration in human MCF7 cells assessed as reduction in oxygen consumption rate at 20 uM incubated for 15 mins; format: functional, cell-based
[15] = system: MCF7; test: Inhibition of mitochondrial induced ROS production in human MCF7 cells assessed as reduction in H2O2 production rate at 20 uM incubated for 15 mins in presence of complex II by Amplex ultra red and horseradish peroxidase based fluorescence assay; format: functional, cell-based
[16] = system: MCF7; test: Induction of cell cycle arrest in human MCF7 cells assessed as accumulation of cells at G0/G1 phase at 5 to 7 uM measured after 24 hrs by PI staining based flow cytometry analysis; format: functional; conditions: dose 5-7 µM
[17] = system: H9c2; test: Cytotoxicity against rat H9c2 cells at upto 100 uM measured after 72 hrs by SRB assay; format: toxicity, cell-based; conditions: h9c2, 72 h
[18] = system: BNL; test: Cytotoxicity against mouse BNL cells at upto 100 uM measured after 72 hrs by SRB assay; format: toxicity, cell-based

T1 sequence (Q96GD4 whole entry): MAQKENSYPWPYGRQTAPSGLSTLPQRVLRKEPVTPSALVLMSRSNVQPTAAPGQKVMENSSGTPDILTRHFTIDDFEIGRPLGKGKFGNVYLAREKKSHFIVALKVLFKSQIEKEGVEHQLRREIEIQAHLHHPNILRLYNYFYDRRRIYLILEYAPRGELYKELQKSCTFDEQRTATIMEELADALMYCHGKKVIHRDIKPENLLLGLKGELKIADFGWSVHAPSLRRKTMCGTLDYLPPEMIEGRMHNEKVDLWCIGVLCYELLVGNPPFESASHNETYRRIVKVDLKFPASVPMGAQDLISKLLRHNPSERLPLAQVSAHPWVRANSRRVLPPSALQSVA

GI50 [3] [nM] | GI50 [5] [nM] | GI50 [7] [nM] | inhibition [8] [%] | SMILES | growth at 10 µM [2] [%] | growth at 10 µM [4] [%] | growth at 10 µM [6] [%] | also measured
– | – | – | – | O=C1Nc2cc(-c3ccc(O)cc3)ccc2/C1=C/c1ccc[nH]1 | – | – | – | Ki [1]: 19.9 nM
30.2 | 28.6 | 41.7 | 38 | O=C1Nc2cc(-c3ccc(NS(=O)(=O)c4cccc(Br)c4)cc3)ccc2/C1=C/c1ccc[nH]1 | -18.4 | -44 | 15.6 | –
31.6 | 25.4 | 61.3 | 32 | O=C1Nc2cc(-c3ccc(NS(=O)(=O)c4ccc(Br)cc4)cc3)ccc2/C1=C/c1ccc[nH]1 | -77.4 | -66.9 | 9.33 | –
– | – | – | – | O=C1Nc2cc(-c3ccc(NS(=O)(=O)c4ccccc4)cc3)ccc2/C1=C/c1ccc[nH]1 | – | – | – | inhibition [9]: 66%
1730 | 778 | 4770 | 49 | O=C1Nc2cc(-c3ccc(NS(=O)(=O)c4ccc([N+](=O)[O-])cc4)cc3)ccc2/C1=C/c1ccc[nH]1 | -23.6 | -29.6 | 15.9 | –
– | – | – | – | O=C(Nc1ccc(-c2ccc3c(c2)NC(=O)/C3=C\c2ccc[nH]2)cc1)NC1CC1 | – | – | – | IC50 [10]: 10.5 nM
33.6 | 25.4 | 47.1 | 20 | O=C1Nc2cc(-c3ccc(NS(=O)(=O)c4ccc5ccccc5c4)cc3)ccc2/C1=C/c1ccc[nH]1 | -51.9 | -80.8 | -16.7 | –
– | – | – | 53 | Cc1[nH]c(/C=C2\C(=O)Nc3cc(-c4ccc(NS(=O)(=O)c5ccc(F)c(Cl)c5)cc4)ccc32)c(C)c1NS(C)(=O)=O | 4.18 | 8.19 | 17.9 | –
47.7 | 30.9 | 28.5 | 33 | COc1ccc(S(=O)(=O)Nc2ccc(-c3ccc4c(c3)NC(=O)/C4=C\c3ccc[nH]3)cc2)cc1OC | -39 | -56.2 | -21 | –
81.8 | 31.1 | 230 | 18 | O=C1Nc2cc(-c3ccc(NS(=O)(=O)c4ccc(C(F)(F)F)cc4)cc3)ccc2/C1=C/c1ccc[nH]1 | 0.78 | -26.2 | 18.1 | –
– | – | – | 46 | CC(=O)Nc1ccc(S(=O)(=O)Nc2ccc(-c3ccc4c(c3)NC(=O)/C4=C\c3ccc[nH]3)cc2)cc1 | 14.3 | -7.1 | 20.7 | –
– | – | – | 90 | CCN(CC)CCNC(=O)c1c(C)[nH]c(/C=C2\C(=O)Nc3cc(-c4ccc(NS(=O)(=O)c5ccc(F)c(Cl)c5)cc4)ccc32)c1C | -85.2 | -90.5 | -49.1 | inhibition [11]: Active; inhibition [12]: Active; inhibition [13]: inactive; inhibition [14]: Active; inhibition [15]: Active; Activity [16]: Active; Activity [17]: Non-Toxic; Activity [18]: Non-Toxic
– | – | – | 43 | O=C1Nc2cc(-c3ccc(NS(=O)(=O)c4cccc(Cl)c4)cc3)ccc2/C1=C/c1ccc[nH]1 | -6.08 | -29.3 | 12.1 | –
74.6 | 40.2 | 136 | 20 | O=C1Nc2cc(-c3ccc(NS(=O)(=O)c4ccc(-c5ccccc5)cc4)cc3)ccc2/C1=C/c1ccc[nH]1 | -25.2 | -52.5 | 3.17 | –
– | – | – | 23 | Cc1ccc(S(=O)(=O)Nc2ccc(-c3ccc4c(c3)NC(=O)/C4=C\c3ccc[nH]3)cc2)cc1 | 3.35 | -25.8 | 18.8 | –

Reference: ChEMBL document CHEMBL5505991, “Novel sulfonamide-indolinone hybrids targeting mitochondrial respiration of breast cancer cells” (Eur J Med Chem, 2024)
